Assays:
STC-1 cells [1] = experiment: CCK secretion in STC-1 cells after inhibitor pretreatment (RR, HC-030031, TPPO, U-73122); assay type: cell-based; conditions: 0.1 mM
Experimental: (§1) The cultured cells were inoculated onto a 24-well plate at a concentration of 2×10^5 cells/well and incubated under the condition of 37° C. and 5% CO2. 72 hours later, the cells were washed 2 times with HEPES buffer (4.5 mM KCl, 1.2 mM CaCl2, 1.2 mM MgCl2, 10 mM glucose, 140 mM NaCl, 20 mM HEPES-Tris, pH 7.4) and then incubated at 37° C. for 60 minutes after adding the test substance to the HEPES buffer. After the incubation, the medium was centrifuged at 10000 rpm for 10 minutes and the resultant supernatant was stored at −70° C. for use in analysis. An enzyme immunoassay (EIA) kit (Phoenix Pharmaceuticals Inc., Belmont Calif.) was used.
The STC-1 cells were pretreated for 30 minutes with 100 μM ruthenium red (RR) or with 50 μM HC-030031. After adding 50 μg/mL of the extract, the cells were incubated at 37° C. for 60 minutes.
The STC-1 cells were pretreated for 30 minutes with 100 μM ruthenium red (RR) or with 50 μM HC-030031. After adding 500 μg/mL of the extract, the cells were incubated at 37° C. for 60 minutes.
The STC-1 cells were pretreated for 30 minutes with 400 μM TPPO or with 20 μM U-73122.
After adding 500 μg/mL of the extract, the cells were incubated at 37° C. for 60 minutes.
The STC-1 cells were pretreated for 30 minutes with 100 μM ruthenium red (RR) or with 50 μM HC-030031. Then, the cells were incubated at 37° C. for 60 minutes after adding 500 μg/mL of the extract.
Then, the cells were incubated at 37° C. for 60 minutes after adding 500 μg/mL of the extract.

STC-1 cells [2] = experiment: Change in Ca2+ level in STC-1 cells after inhibitor pretreatment (RR, HC-030031, TPPO, U-73122); assay type: cell-based; conditions: 0.1 mM
Experimental: (§2) The cells were inoculated onto a poly-D-Lysine-coated black 96-well clear-bottom plate (Thermo) at a concentration of 8.0×10^4 cells/well and incubated under the condition of 37° C. and 5% CO2. 72 hours later, the cells were incubated at 37° C. for 60 minutes using the Calcium-5 assay kit (Molecular Devices) and the change in Ca^2+ level was measured using Flexstation III. The change in Ca^2+ level was monitored for about 120 seconds at fluorescence wavelengths of 488 nm (ex) and 525 nm (em) and for 2 seconds after injecting the compound for 20 seconds.
The STC-1 cells were pretreated for 60 minutes with 100 μM ruthenium red (RR) or with 50 μM HC-030031. Then, the cells were treated with 1 mg/mL of the extract.
The STC-1 cells were pretreated for 60 minutes with 400 μM TPPO or with 20 μM U-73122.
Then, the cells were treated with 1 mg/mL of the extract.
The STC-1 cells were pretreated for 60 minutes with 100 μM ruthenium red or with 50 μM HC-030031. Then, the cells were treated with 1 mg/mL of the extract.
The STC-1 cells were pretreated for 60 minutes with 400 μM TPPO or with 20 μM U-73122. Then, the cells were treated with 1 mg/mL of the extract.

STC-1 cells [3] = experiment: Change in Ca2+ level in STC-1 cells; assay type: cell-based
Experimental: as §2

RIN14B cells [4] = experiment: 5-HT secretion in RIN14B cells (Serotonin EIA); assay type: cell-based; conditions: 300 μM, 60 minutes
Experimental: RIN14B cells were cultured in RPMI medium 1640 containing 10% fetal bovine serum (FBS) and 1% penicillin-streptomycin in an incubator maintained at 37° C. and 5% CO2.
as §1, with “5-HT assay” for “HEPES”, “(HBSS, 0.1% BSA, 1.25” for “(4.5 mM KCl, 1.2”, “2 μM fluoxetine,” for “1.2 mM MgCl2, 10 mM glucose, 140 mM NaCl, 20 mM HEPES-Tris,”, “10,000” for “10000”, “A Serotonin” for “An enzyme immunoassay”, “(Enzo Life Sciences)” for “(Phoenix Pharmaceuticals Inc., Belmont Calif.)”

STC-1 cells [5] = experiment: CCK secretion in STC-1 cells (EIA); assay type: cell-based; conditions: 60 minutes
Experimental: STC-1 cells were cultured in Dulbecco's modified Eagle's medium (DMEM) containing 10% fetal bovine serum (FBS) and 1% penicillin-streptomycin in an incubator maintained at 37° C. and 5% CO2. […] An enzyme immunoassay (EIA) kit (Phoenix Pharmaceuticals Inc., Belmont Calif.) was used.

RIN14B cells [6] = experiment: 5-HT secretion in RIN14B cells after inhibitor pretreatment (RR, HC-030031); assay type: cell-based; conditions: 300 μM
Experimental: as §1, with “5-HT assay” for “HEPES”, “(HBSS, 0.1% BSA, 1.25” for “(4.5 mM KCl, 1.2”, “2 μM fluoxetine,” for “1.2 mM MgCl2, 10 mM glucose, 140 mM NaCl, 20 mM HEPES-Tris,”, “10,000” for “10000”, “A Serotonin” for “An enzyme immunoassay”, “(Enzo Life Sciences)” for “(Phoenix Pharmaceuticals Inc., Belmont Calif.)”
The RIN14B cells were pretreated for 30 minutes with 100 μM ruthenium red (RR) or with 50 μM HC-030031. […]

RIN14B cells [7] = experiment: Change in Ca2+ level in RIN14B cells after inhibitor pretreatment (RR, HC-030031); assay type: cell-based; conditions: 300 μM
Experimental: as §2, with “a” for “a poly-D-Lysine-coated”, “(Corning)” for “(Thermo)”, “5.0×10^4” for “8.0×10^4”, “48” for “72”
The RIN14B cells were pretreated for 60 minutes with 100 μM ruthenium red (RR) or with 50 μM HC-030031. […]

RIN14B cells [8] = experiment: Change in Ca2+ level in RIN14B cells; assay type: cell-based
Experimental: as §2, with “a” for “a poly-D-Lysine-coated”, “(Corning)” for “(Thermo)”, “5.0×10^4” for “8.0×10^4”, “48” for “72”

STC-1 cells [9] = experiment: Membrane potential change in STC-1 cells; assay type: cell-based
GPR119 = target: T1, GPR119 (Homo sapiens, UniProt Q8TDV5); experiment: GLP-1 secretion in NCI-H716 cells treated with GPR119 siRNA; assay type: cell-based
T1 construct: The transfection of the cells with GPR119 siRNA leads to knockdown of the GPR119 gene; endogenous in cells; host or cells: NCI-H716 cells
T1 sequence (Q8TDV5 1-335): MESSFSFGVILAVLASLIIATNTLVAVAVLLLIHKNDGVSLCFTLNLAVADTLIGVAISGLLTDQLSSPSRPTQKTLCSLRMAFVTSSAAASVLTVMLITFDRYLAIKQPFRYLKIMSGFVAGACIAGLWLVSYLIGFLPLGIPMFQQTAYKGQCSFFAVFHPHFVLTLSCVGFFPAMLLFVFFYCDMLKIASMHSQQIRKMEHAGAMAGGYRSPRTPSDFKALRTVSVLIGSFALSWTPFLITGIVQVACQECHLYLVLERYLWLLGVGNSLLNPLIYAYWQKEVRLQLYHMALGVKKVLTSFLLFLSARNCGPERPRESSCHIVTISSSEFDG
Experimental: The NCI-H716 cells were cultured on a 96-well plate for 3 days to a concentration of 2×10^5 cells/mL. On the day of the experiment, the cells were washed with phosphate-buffered saline (PBS) and incubated at 37° C. for 1 hour in Krebs-Ringer bicarbonate buffer (KRB, 128.8 mmol/L NaCl, 4.8 mmol/L KCl, 1.2 mmol/L KH2PO4, 1.2 mmol/L MgSO4, 2.5 mmol/L CaCl2, 5 mmol/L NaHCO3, 10 mmol/L HEPES, 0.2% BSA, pH 7.4) to which the sample was added. Then, for GLP-1 assay, the supernatant (100 μL) was taken and analyzed using an active GLP-1 ELISA kit (EGLP-35K, Millipore). The concentration of GLP-1 was calculated GLP-1 standard (pmol/mL) and the result was expressed as fold of control by comparing the concentration of GLP-1 secreted by stimulation with the sample and the concentration of GLP-1 secreted by stimulation with a control substance.
siRNA sequence targeting human α-gustducin (GNAT3, accession no. NM 001102386, Dharmacon on-target SMARTpool siRNA reagent), GPR119 ([…]/GeneBank accession no. NM_176817) and non-target SMARTpool siRNA were purchased from Dharmacon (Lafayette, Colo.). The NCI-H716 cells were transfected with the siRNAs for 48 hours using the Neon™ transfection system (Invitrogen, Carlsbad, Calif.). Then, GLP-1 secretion and the concentrations of Ca^2+ and cAMP were measured.

NCI-H716 cells = experiment: Intracellular cAMP in NCI-H716 cells (EIA); assay type: cell-based, Human; conditions: 20 μM
Experimental: The NCI-H716 cells were plated onto a 24-well culture plate at a concentration of 1×10^6 cells/mL and cultured for 3 days. On the day of the experiment, the cells were incubated with the sample in KRB buffer at 37° C. using a 5% CO2 incubator. After the incubation, the medium was removed and the cells were washed 3 times with KRB buffer. They were then incubated at 150 rpm at room temperature for 20 minutes after adding 0.5 mL of 0.1 N HCl. The incubated cells were then centrifuged at 1000 g for 10 minutes and the supernatant was analyzed by an enzyme immunoassay (EIA) using the cyclic AMP kit.

## C=CCN=C=S [AITC]
STC-1 cells [1]; HC-030031 50 μM
  Inhibition (%) of CCK secretion: 52.58%
STC-1 cells [1]; RR 100 μM
  Inhibition (%) of CCK secretion: 73.21%
STC-1 cells [1]; inhibitor: Untreated
  CCK secretion, Fold of control (mean ± S.E.M.): 22.56 ± 0.65 Fold of control
STC-1 cells [1]; pretreated 50 μM HC-030031
  CCK secretion, Fold of control (mean ± S.E.M.): 10.70 ± 0.92 Fold of control
STC-1 cells [1]; pretreated 100 μM RR
  CCK secretion, Fold of control (mean ± S.E.M.): 6.04 ± 0.73 Fold of control
STC-1 cells [2]; HC-030031 50 μM
  Inhibition (%) of Ca^2+ change: 83.50%
STC-1 cells [2]; RR 100 μM
  Inhibition (%) of Ca^2+ change: 93.14%
STC-1 cells [2]; inhibitor: Untreated
  Change in Ca^2+ level, ΔRFU (mean ± S.E.M.): 400.52 ± 6.90 ΔRFU
STC-1 cells [2]; pretreated 50 μM HC-030031
  Change in Ca^2+ level, ΔRFU (mean ± S.E.M.): 66.07 ± 2.56 ΔRFU
STC-1 cells [2]; pretreated 100 μM RR
  Change in Ca^2+ level, ΔRFU (mean ± S.E.M.): 27.47 ± 1.77 ΔRFU
STC-1 cells [3]; 0.1 mM
  Change in Ca^2+ level, ΔRFU (mean ± S.E.M.): 105.41 ± 2.12 ΔRFU
STC-1 cells [3]; 1 mM
  Change in Ca^2+ level, ΔRFU (mean ± S.E.M.): 151.04 ± 5.65 ΔRFU
STC-1 cells [3]; 10 mM
  Change in Ca^2+ level, ΔRFU (mean ± S.E.M.): 168.68 ± 5.79 ΔRFU
RIN14B cells [4]
  5-HT secretion, Fold of control (mean ± S.E.M.): 8.11 ± 2.70 Fold of control
STC-1 cells [5]; 0.1 mM
  CCK secretion, Fold of control (mean ± S.E.M.): 21.57 ± 0.59 Fold of control
STC-1 cells [5]; 1 mM
  CCK secretion, Fold of control (mean ± S.E.M.): 21.99 ± 0.64 Fold of control
STC-1 cells [5]; 10 mM
  CCK secretion, Fold of control (mean ± S.E.M.): 25.59 ± 0.59 Fold of control
RIN14B cells [6]; HC-030031 50 μM
  Inhibition (%) of 5-HT secretion: −11.27%
RIN14B cells [6]; RR 100 μM
  Inhibition (%) of 5-HT secretion: 55.56%
RIN14B cells [6]; inhibitor: Untreated
  5-HT secretion, Fold of control (mean ± S.E.M.): 8.11 ± 2.70 Fold of control
RIN14B cells [6]; pretreated 50 μM HC-030031
  5-HT secretion, Fold of control (mean ± S.E.M.): 9.02 ± 6.37 Fold of control
RIN14B cells [6]; pretreated 100 μM RR
  5-HT secretion, Fold of control (mean ± S.E.M.): 3.60 ± 1.80 Fold of control
RIN14B cells [7]; HC-030031 50 μM
  Inhibition (%) of Ca^2+ change: 70.31%
RIN14B cells [7]; RR 100 μM
  Inhibition (%) of Ca^2+ change: 66.36%
RIN14B cells [7]; inhibitor: Untreated
  Change in Ca^2+ level, ΔRFU (mean ± S.E.M.): 13.42 ± 1.08 ΔRFU
RIN14B cells [7]; pretreated 50 μM HC-030031
  Change in Ca^2+ level, ΔRFU (mean ± S.E.M.): 3.98 ± 0.80 ΔRFU
RIN14B cells [7]; pretreated 100 μM RR
  Change in Ca^2+ level, ΔRFU (mean ± S.E.M.): 4.51 ± 1.40 ΔRFU
RIN14B cells [8]; 50 μM
  Change in Ca^2+ level, ΔRFU (mean ± S.E.M.): 13.44 ± 1.78 ΔRFU
RIN14B cells [8]; 300 μM
  Change in Ca^2+ level, ΔRFU (mean ± S.E.M.): 19.78 ± 4.08 ΔRFU
RIN14B cells [8]; 500 μM
  Change in Ca^2+ level, ΔRFU (mean ± S.E.M.): 22.17 ± 3.65 ΔRFU

## [Cl-].[K+] [KCl]
STC-1 cells [9]; 0.1 mM
  Membrane potential change, ΔRFU (mean ± SEM): 17.01 ± 0.93 ΔRFU
STC-1 cells [9]; 1 mM
  Membrane potential change, ΔRFU (mean ± SEM): 35.08 ± 3.43 ΔRFU
STC-1 cells [9]; 10 mM
  Membrane potential change, ΔRFU (mean ± SEM): 270.08 ± 9.57 ΔRFU

## CCCCCCCC/C=C\CCCCCCCC(=O)NCCO [OEA (oleoylethanolamide), oleoylethanolamide]
GPR119; 20 μM, GPR119 siRNA
  GLP-1 secretion (fold of control) GPR119 siRNA: 2.975 ± 0.241 fold of control
GPR119; 20 μM, control siRNA
  GLP-1 secretion (fold of control) Control siRNA: 4.822 ± 0.358 fold of control
GPR119; NCI-H716
  inhibition at 20 µM: 38.3%
NCI-H716 cells
  cAMP (fold of control): 6.813 ± 1.634 fold of control
